# Results published in paper PMC6572064, “Discovery of 2-(1-(3-(4-Chloroxyphenyl)-3-oxo- propyl)pyrrolidine-3-yl)-1H-benzo[d]imidazole-4-carboxamide: A Potent Poly(ADP-ribose) Polymerase (PARP) Inhibitor for Treatment of Cancer” (Molecules, 2019).
# Read-outs that look alike come from different tables or passages of the source.
# Key:
# [1] = tested on: CAPAN-1 (a BRCA-2-mutated pancreatic cancer cell line); assay: Cell proliferation assay, three-day, CellTiter-Glo, CAPAN-1; type: cell-based; details: for LogIC50: Log (uM); for IC50 / inhibition at 0.00508 µM / inhibition at 0.0152 µM / inhibition at 0.0457 µM / inhibition at […] / inhibition at 0.41 µM / inhibition at 1.23 µM / inhibition at 3.7 µM / inhibition at 11.11 µM / inhibition at 33.33 µM / inhibition at 100 µM: Homo sapiens; for inhibition at 0.00508 µM: CAPAN-1, 0.00508 uM; for inhibition at 0.0152 µM: CAPAN-1, 0.0152 uM; for inhibition at 0.0457 µM: CAPAN-1, 0.0457 uM; for inhibition at […]: CAPAN-1, 0.14 uM; for inhibition at 0.41 µM: CAPAN-1, 0.41 uM; for inhibition at 1.23 µM: CAPAN-1, 1.23 uM; for inhibition at 3.7 µM: CAPAN-1, 3.70 uM; for inhibition at 11.11 µM: CAPAN-1, 11.11 uM; for inhibition at 33.33 µM: CAPAN-1, 33.33 uM; for inhibition at 100 µM: CAPAN-1, 100.00 uM
# Protocol: (§1) A three-day assay was conducted. A cell suspension was prepared. Cell density was counted by an automated cell counter and then diluted to the required density, according to seeding density. 50 μL cells were seeded into 384-well plate in growth medium according to the plate map. The cells were incubated at 37 °C, 5% CO2 overnight.
# (§2) 200× compound solution in DMSO was prepared and diluted with growth medium to 26× final concentration by addition of 26 μL 200× compounds to 174 μL growth medium. Then 2 μL of diluted compound solution was added to cells and the cell was incubated at 37 °C, 5% CO2 for 72 h.
# (§3) The assay plate was equilibrated to room temperature prior to measurement. 15 μL of CellTiter-Glo Reagent was added into each well and the contents were mixed for 2 min on an orbital shaker to induce cell lysis. The cells were incubated at room temperature for 60 min to stabilize luminescent signal. Luminescence was recorded on the Envision system.
# [2] = biological target: T1, PARP-1 (Homo sapiens, UniProt P09874); assay: PARP-1 inhibition assay (PARP-1 Chemiluminescent Assay Kit, BPS Bioscience); type: biochemical; details: 10 nM compound
# T1 construct: purchased BPS Bioscience 80569
# Protocol: (§4) The PARP-1 and PARP-2 inhibition assays were performed in outsourcing, by a CRO company, Shanghai Medicilon Inc. (Shanghai, China). […] Briefly, PARP-1 or PARP-2 biotinylated substrate was incubated with compounds or solvent control at varying concentrations and an assay buffer containing the PARP-1 or PARP-2 enzyme.
# [3] = tested on: MDA-MB-436 (a BRCA-1-mutated breast cancer cell line); assay: Cell proliferation assay, three-day, CellTiter-Glo, MDA-MB-436; type: cell-based; details: for inhibition at 0.00508 µM / inhibition at 0.0152 µM / inhibition at 0.0457 µM / inhibition at 0.41 µM / inhibition at 1.23 µM / inhibition at 3.7 µM / inhibition at 11.11 µM / inhibition at 33.33 µM / inhibition at 100 µM / IC50: Homo sapiens; for inhibition at 0.00508 µM: MDA-MB-436, MDA-MB-436, Conc. 0.00508 uM; for inhibition at 0.0152 µM: MDA-MB-436, MDA-MB-436, Conc. 0.0152 uM; for inhibition at 0.0457 µM: MDA-MB-436, MDA-MB-436, Conc. 0.0457 uM; for inhibition at 0.41 µM: MDA-MB-436, MDA-MB-436, Conc. 0.41 uM; for inhibition at 1.23 µM: MDA-MB-436, MDA-MB-436, Conc. 1.23 uM; for inhibition at 3.7 µM: MDA-MB-436, MDA-MB-436, Conc. 3.70 uM; for inhibition at 11.11 µM: MDA-MB-436, MDA-MB-436, Conc. 11.11 uM; for inhibition at 33.33 µM: MDA-MB-436, MDA-MB-436, Conc. 33.33 uM; for inhibition at 100 µM: MDA-MB-436, MDA-MB-436, Conc. 100.00 uM; for LogIC50: curve fit on Log (uM) concentrations; for Bottom / Top: curve fit parameter (Inh %); for Top: '= 100.0' is a constrained value
# Protocol: as §1, §2, §3
# [4] = biological target: T2, PARP-2 (Homo sapiens, UniProt Q9UGN5); assay: PARP-2 inhibition assay (PARP-2 Chemiluminescent Assay Kit, BPS Bioscience); type: biochemical; details: 10 nM compound
# T2 construct: purchased BPS Bioscience 80552
# Protocol: as §4
# [5] = CAPAN-1, 72 h, CellTiter-Glo, read-out: CAPAN-1 IC50
# [6] = supplement sheet, read-out: 10 nM inhibition% PAPR-1
# [7] = read-out: PARP-1 Inhibition % (10 nM)
# [8] = MDA-MB-436, 72 h, CellTiter-Glo, read-out: MDA-MB-436 IC50
# [9] = MDA-MB-436, 72 h, supplement Summary sheet, read-out: IC50
# [10] = MDA-MB-436, curve fit list, no unit in the cell, concentration in uM, read-out: IC50
# [11] = supplement sheet, read-out: 10 nM inhibition% PAPR-2
# [12] = read-out: PARP-2 Inhibition % (10 nM)
# T2 sequence (Q9UGN5 whole entry): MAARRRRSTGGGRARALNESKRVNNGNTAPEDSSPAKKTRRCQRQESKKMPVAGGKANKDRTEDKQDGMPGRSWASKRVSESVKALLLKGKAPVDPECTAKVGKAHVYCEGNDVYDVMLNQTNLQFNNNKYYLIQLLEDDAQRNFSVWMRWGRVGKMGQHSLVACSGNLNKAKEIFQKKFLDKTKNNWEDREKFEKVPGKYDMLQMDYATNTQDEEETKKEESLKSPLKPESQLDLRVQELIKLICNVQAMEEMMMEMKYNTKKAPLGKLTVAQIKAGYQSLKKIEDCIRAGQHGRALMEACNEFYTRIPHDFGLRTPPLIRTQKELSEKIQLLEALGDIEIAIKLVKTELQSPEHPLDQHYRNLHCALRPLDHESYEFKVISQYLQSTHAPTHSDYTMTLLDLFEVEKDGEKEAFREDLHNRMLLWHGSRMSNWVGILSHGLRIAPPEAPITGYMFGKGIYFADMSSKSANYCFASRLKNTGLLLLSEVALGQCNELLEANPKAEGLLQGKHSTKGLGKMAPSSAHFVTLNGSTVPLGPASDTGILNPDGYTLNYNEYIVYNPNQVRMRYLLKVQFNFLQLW
# T1 sequence (P09874 whole entry): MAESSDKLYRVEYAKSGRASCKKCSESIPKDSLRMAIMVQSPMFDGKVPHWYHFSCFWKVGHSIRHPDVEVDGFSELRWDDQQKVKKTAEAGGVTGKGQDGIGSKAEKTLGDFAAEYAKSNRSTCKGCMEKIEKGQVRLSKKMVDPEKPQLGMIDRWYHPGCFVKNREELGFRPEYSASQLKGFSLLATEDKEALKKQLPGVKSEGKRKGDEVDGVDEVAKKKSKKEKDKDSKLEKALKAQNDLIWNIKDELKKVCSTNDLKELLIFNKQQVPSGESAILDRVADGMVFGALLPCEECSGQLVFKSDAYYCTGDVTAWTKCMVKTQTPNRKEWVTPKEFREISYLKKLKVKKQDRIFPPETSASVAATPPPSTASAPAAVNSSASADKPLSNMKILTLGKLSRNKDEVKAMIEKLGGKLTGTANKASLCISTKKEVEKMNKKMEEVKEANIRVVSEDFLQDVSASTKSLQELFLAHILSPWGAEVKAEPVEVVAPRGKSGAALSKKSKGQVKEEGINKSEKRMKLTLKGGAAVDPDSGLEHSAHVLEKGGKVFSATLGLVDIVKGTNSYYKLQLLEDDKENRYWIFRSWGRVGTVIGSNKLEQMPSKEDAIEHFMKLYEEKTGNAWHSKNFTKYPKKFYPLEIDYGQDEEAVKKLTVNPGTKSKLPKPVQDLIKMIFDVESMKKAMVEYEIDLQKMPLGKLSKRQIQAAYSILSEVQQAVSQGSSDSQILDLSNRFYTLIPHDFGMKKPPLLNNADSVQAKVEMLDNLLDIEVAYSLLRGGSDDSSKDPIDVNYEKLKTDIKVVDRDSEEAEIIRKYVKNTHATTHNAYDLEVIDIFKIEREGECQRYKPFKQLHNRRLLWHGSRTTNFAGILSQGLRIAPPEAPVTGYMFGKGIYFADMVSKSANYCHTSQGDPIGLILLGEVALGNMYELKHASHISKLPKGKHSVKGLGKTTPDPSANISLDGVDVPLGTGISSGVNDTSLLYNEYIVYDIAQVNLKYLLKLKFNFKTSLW
structure (smiles),measurement,setting,value
"NC(=O)c1cccc2[nH]c(C3CCN(CCC(=O)Nc4ccccc4)C3)nc12 (stereo not drawn) [Compound 5cb, 2-(1-(3-Oxo-3-(Phenylamino)propyl)pyrrolidin-3-yl)-1H-benzo[d]imidazole-4-carboxamide]",LogIC50,"[1]; CAPAN-1, curve-fit output",2.189
same,IC50,[1]; [5],> 100 µM
same,inhibition at 0.00508 µM,"[1]; replicate 1, read-out: Inh % 1",-8%
same,inhibition at 0.00508 µM,"[1]; replicate 2, read-out: Inh % 2",3.3%
same,inhibition at 0.0152 µM,"[1]; replicate 1, read-out: Inh % 1",3.4%
same,inhibition at 0.0152 µM,"[1]; replicate 2, read-out: Inh % 2",17%
same,inhibition at 0.0457 µM,"[1]; replicate 1, read-out: Inh % 1",-4.1%
same,inhibition at 0.0457 µM,"[1]; replicate 2, read-out: Inh % 2",5.6%
same,inhibition at […],"[1]; replicate 1, read-out: Inh % 1",-2%
same,inhibition at […],"[1]; replicate 2, read-out: Inh % 2",2.2%
same,inhibition at 0.41 µM,"[1]; replicate 1, read-out: Inh % 1",10.3%
same,inhibition at 0.41 µM,"[1]; replicate 2, read-out: Inh % 2",6.1%
same,inhibition at 1.23 µM,"[1]; replicate 1, read-out: Inh % 1",12.4%
same,inhibition at 1.23 µM,"[1]; replicate 2, read-out: Inh % 2",-0.64%
same,inhibition at 3.7 µM,"[1]; replicate 1, read-out: Inh % 1",11.2%
same,inhibition at 3.7 µM,"[1]; replicate 2, read-out: Inh % 2",9.9%
same,inhibition at 11.11 µM,"[1]; replicate 1, read-out: Inh % 1",5%
same,inhibition at 11.11 µM,"[1]; replicate 2, read-out: Inh % 2",-4.1%
same,inhibition at 33.33 µM,"[1]; replicate 1, read-out: Inh % 1",3.6%
same,inhibition at 33.33 µM,"[1]; replicate 2, read-out: Inh % 2",21.6%
same,inhibition at 100 µM,"[1]; replicate 1, read-out: Inh % 1",39.1%
same,inhibition at 100 µM,"[1]; replicate 2, read-out: Inh % 2",32%
same,inhibition at 0.01 µM,[2]; [6],19.9%
same,inhibition at 0.01 µM,[2]; [7],19.9%
same,inhibition at 0.00508 µM,"[3]; replicate 1, read-out: Inh % 1",0.0167%
same,inhibition at 0.00508 µM,"[3]; replicate 2, read-out: Inh % 2",-6.8%
same,inhibition at 0.0152 µM,"[3]; replicate 1, read-out: Inh % 1",-5.6%
same,inhibition at 0.0152 µM,"[3]; replicate 2, read-out: Inh % 2",-10.5%
same,inhibition at 0.0457 µM,"[3]; replicate 1, read-out: Inh % 1",-12.9%
same,inhibition at 0.0457 µM,"[3]; replicate 2, read-out: Inh % 2",-11.3%
same,inhibition at 0.41 µM,"[3]; replicate 1, read-out: Inh % 1",-10%
same,inhibition at 0.41 µM,"[3]; replicate 2, read-out: Inh % 2",-14%
same,inhibition at 1.23 µM,"[3]; replicate 1, read-out: Inh % 1",-9.6%
same,inhibition at 1.23 µM,"[3]; replicate 2, read-out: Inh % 2",-14.7%
same,inhibition at 3.7 µM,"[3]; replicate 1, read-out: Inh % 1",-9.8%
same,inhibition at 3.7 µM,"[3]; replicate 2, read-out: Inh % 2",-10.5%
same,inhibition at 11.11 µM,"[3]; replicate 1, read-out: Inh % 1",-2.5%
same,inhibition at 11.11 µM,"[3]; replicate 2, read-out: Inh % 2",-1.6%
same,inhibition at 33.33 µM,"[3]; replicate 1, read-out: Inh % 1",9.7%
same,inhibition at 33.33 µM,"[3]; replicate 2, read-out: Inh % 2",9.8%
same,inhibition at 100 µM,"[3]; replicate 1, read-out: Inh % 1",58.3%
same,inhibition at 100 µM,"[3]; replicate 2, read-out: Inh % 2",40%
same,IC50,[3]; [8],90.4 µM
same,IC50,[3]; [9],90.4 µM
same,IC50,[3]; [10],90.4 µM
same,LogIC50,[3]; MDA-MB-436,1.956
same,Bottom,[3]; MDA-MB-436,-10.26
same,Top,[3]; MDA-MB-436,= 100.0
same,inhibition at 0.01 µM,[4]; [11],41.2%
same,inhibition at 0.01 µM,[4]; [12],41.2%
"NC(=O)c1cccc2[nH]c(C3CCN(CC(=O)c4ccccc4)C3)nc12 (stereo not drawn) [Compound 5cd, 2-(1-(2-Oxo-2-phenylethyl)pyrrolidin-3-yl)-1H-benzo[d]imidazole-4-carboxa-mide]",LogIC50,"[1]; CAPAN-1, curve-fit output",1.917
same,IC50,[1]; [5],82.5 µM
same,inhibition at 0.00508 µM,"[1]; replicate 1, read-out: Inh % 1",4.6%
same,inhibition at 0.00508 µM,"[1]; replicate 2, read-out: Inh % 2",-0.8%
same,inhibition at 0.0152 µM,"[1]; replicate 1, read-out: Inh % 1",2.6%
same,inhibition at 0.0152 µM,"[1]; replicate 2, read-out: Inh % 2",-1.6%
same,inhibition at 0.0457 µM,"[1]; replicate 1, read-out: Inh % 1",0.6%
same,inhibition at 0.0457 µM,"[1]; replicate 2, read-out: Inh % 2",-4.7%
same,inhibition at […],"[1]; replicate 1, read-out: Inh % 1",3.7%
same,inhibition at […],"[1]; replicate 2, read-out: Inh % 2",-1.1%
same,inhibition at 0.41 µM,"[1]; replicate 1, read-out: Inh % 1",13.1%
same,inhibition at 0.41 µM,"[1]; replicate 2, read-out: Inh % 2",3.2%
same,inhibition at 1.23 µM,"[1]; replicate 1, read-out: Inh % 1",2.1%
same,inhibition at 1.23 µM,"[1]; replicate 2, read-out: Inh % 2",3.2%
same,inhibition at 3.7 µM,"[1]; replicate 1, read-out: Inh % 1",4%
same,inhibition at 3.7 µM,"[1]; replicate 2, read-out: Inh % 2",4.4%
same,inhibition at 11.11 µM,"[1]; replicate 1, read-out: Inh % 1",1%
same,inhibition at 11.11 µM,"[1]; replicate 2, read-out: Inh % 2",4.4%
same,inhibition at 33.33 µM,"[1]; replicate 1, read-out: Inh % 1",17.9%
same,inhibition at 33.33 µM,"[1]; replicate 2, read-out: Inh % 2",8.7%
same,inhibition at 100 µM,"[1]; replicate 1, read-out: Inh % 1",68%
same,inhibition at 100 µM,"[1]; replicate 2, read-out: Inh % 2",55.2%
same,IC50,"[1]; CAPAN-1, 72 h, supplement Summary sheet, read-out: IC50",82.5 µM
same,IC50,"[1]; CAPAN-1, curve-fit output, concentrations in uM, read-out: IC50",82.5 µM
same,inhibition at 0.01 µM,[2]; [6],-1.05%
same,inhibition at 0.01 µM,[2]; [7],-1.1%
same,inhibition at 0.00508 µM,"[3]; replicate 1, read-out: Inh % 1",-0.654%
same,inhibition at 0.00508 µM,"[3]; replicate 2, read-out: Inh % 2",-7.1%
same,inhibition at 0.0152 µM,"[3]; replicate 1, read-out: Inh % 1",-3.7%
same,inhibition at 0.0152 µM,"[3]; replicate 2, read-out: Inh % 2",-6.1%
same,inhibition at 0.0457 µM,"[3]; replicate 1, read-out: Inh % 1",-6.8%
same,inhibition at 0.0457 µM,"[3]; replicate 2, read-out: Inh % 2",-12.7%
same,inhibition at 0.41 µM,"[3]; replicate 1, read-out: Inh % 1",-13.5%
same,inhibition at 0.41 µM,"[3]; replicate 2, read-out: Inh % 2",-13.2%
same,inhibition at 1.23 µM,"[3]; replicate 1, read-out: Inh % 1",-16.5%
same,inhibition at 1.23 µM,"[3]; replicate 2, read-out: Inh % 2",-19%
same,inhibition at 3.7 µM,"[3]; replicate 1, read-out: Inh % 1",-10.3%
same,inhibition at 3.7 µM,"[3]; replicate 2, read-out: Inh % 2",-11.7%
same,inhibition at 11.11 µM,"[3]; replicate 1, read-out: Inh % 1",0.3%
same,inhibition at 11.11 µM,"[3]; replicate 2, read-out: Inh % 2",-11%
same,inhibition at 33.33 µM,"[3]; replicate 1, read-out: Inh % 1",35.4%
same,inhibition at 33.33 µM,"[3]; replicate 2, read-out: Inh % 2",16.5%
same,inhibition at 100 µM,"[3]; replicate 1, read-out: Inh % 1",68.9%
same,inhibition at 100 µM,"[3]; replicate 2, read-out: Inh % 2",66.2%
same,IC50,[3]; [8],55 µM
same,IC50,[3]; [9],55 µM
same,IC50,[3]; [10],55 µM
same,LogIC50,[3]; MDA-MB-436,1.74
same,Bottom,[3]; MDA-MB-436,-10.87
same,Top,[3]; MDA-MB-436,= 100.0
same,inhibition at 0.01 µM,[4]; [11],7.18%
same,inhibition at 0.01 µM,[4]; [12],7.2%
